Numbered stars: 1 amine (or outer) side, 2 acyl side, 3 side chain; on linkers, the order of the positions; unused ones are H or OH. Square brackets hold non-standard residues; d marks the D form. Peptide text beside a SMILES is read from it. * marks the point of attachment. aIle = CC[C@@H](C)[C@H](N)C(=O)O; dCha = N[C@H](CC1CCCCC1)C(=O)O; Ac5c = NC1(C(=O)O)CCCC1; Cbz = O=C(OCc1ccccc1)*; Aib = CC(C)(N)C(=O)O; CO = O=C([*:1])[*:2]
Target: T1, TAFIa (Homo sapiens, UniProt Q96IY4)
T1 construct: purchased American Diagnostica 874TAFIA
T1 sequence (Q96IY4 115-423): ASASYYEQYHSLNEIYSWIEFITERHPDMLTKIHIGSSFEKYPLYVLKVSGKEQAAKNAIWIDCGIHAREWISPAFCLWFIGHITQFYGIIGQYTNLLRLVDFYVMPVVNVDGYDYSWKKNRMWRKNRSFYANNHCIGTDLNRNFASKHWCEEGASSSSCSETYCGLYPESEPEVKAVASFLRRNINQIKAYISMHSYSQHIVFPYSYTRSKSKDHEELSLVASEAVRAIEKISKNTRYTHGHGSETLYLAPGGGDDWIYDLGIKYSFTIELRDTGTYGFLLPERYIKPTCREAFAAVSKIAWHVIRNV
Test: TAFIa inhibition, Actichrome plasma TAFI activity kit (American Diagnostica)
Type: biochemical
Conditions: 15 min preincubation at room temperature, read at 420 nm, duplicate determination of serial dilutions
Description: The enzymic reaction was started by adding 10 μl of TAFIa developer (prediluted 1:2 with assay buffer).
The IC50 values were calculated from the averaged values (duplicate determination) of serial dilutions of the substance with the aid of the Softmax Pro software (version 4.8; Molecular Devices).

Structure (SMILES)	IC50 [nM]
CC(C)CCNC(=O)[C@@H](CCCCNC(=O)OCc1ccccc1)NC(=O)N[C@@H](CCCCN)C(=O)O [Example 2]	1420
CCNC(=O)[C@@H](NC(=O)[C@@H](CC1CCCCC1)NC(=O)N[C@@H](CCCCN)C(=O)O)C(C)C [Example 10] ({Lys-CO}-[dCha]-Val-NHEt)	979
NCCCC[C@H](NC(=O)N[C@H](CC1CCCCC1)C(=O)NCc1ccc(F)cc1F)C(=O)O [Example 11, (S)-6-Amino-2-{3-[(R)-2-cyclohexyl-1-(2,4-difluoro-benzylcarbamoyl)-ethyl]-ureido}-hexanoic acid]	644
CC(CNC(=O)[C@@H](CC1CCCCC1)NC(=O)N[C@@H](CCCCN)C(=O)O)c1ccccc1 (stereo partly drawn) [Example 12]	1260
CC1CCCCC1NC(=O)[C@@H](CC1CCCCC1)NC(=O)N[C@@H](CCCCN)C(=O)O (stereo partly drawn) [Example 19]	353
COc1ccc(CNC(=O)[C@@H](CC2CCCCC2)NC(=O)N[C@@H](CCCCN)C(=O)O)cc1 [Example 21]	904
COC(=O)C(C)(C)NC(=O)[C@@H](CCCCNC(=O)OCc1ccccc1)NC(=O)N[C@@H](CCCCN)C(=O)O [Example 25] ({Lys-CO}-[dK](Cbz)-[Aib]-OMe)	463
NCCCC[C@H](NC(=O)N[C@H](CC1CCCCC1)C(=O)NCC(c1ccccc1)c1ccccc1)C(=O)O [Example 28]	118
C[C@H]1CC[C@H](NC(=O)[C@@H](CC2CCCCC2)NC(=O)N[C@@H](CCCCN)C(=O)O)CC1 [Example 31]	76
CCOC(=O)[C@H](CC(C)C)NC(=O)[C@@H](CCCCNC(=O)OCc1ccccc1)NC(=O)N[C@@H](CCCCN)C(=O)O [Example 32] ({Lys-CO}-[dK](Cbz)-Leu-OEt)	753
CCOC(=O)[C@@H]1CCCC[C@@H]1NC(=O)[C@@H](CCCCNC(=O)OCc1ccccc1)NC(=O)N[C@@H](CCCCN)C(=O)O [Example 33]	190
CC[C@H](C)[C@H](NC(=O)[C@@H](CCCCNC(=O)OCc1ccccc1)NC(=O)N[C@@H](CCCCN)C(=O)O)C(=O)OC [Example 37]	537
CC1CCCC(NC(=O)[C@@H](CC2CCCCC2)NC(=O)N[C@@H](CCCCN)C(=O)O)C1 (stereo partly drawn) [Example 41]	90
CC1CCCCC1NC(=O)[C@@H](CCCCNC(=O)OCc1ccccc1)NC(=O)N[C@@H](CCCCN)C(=O)O (stereo partly drawn) [Example 42]	839
NCCCC[C@H](NC(=O)N[C@H](CCCCNC(=O)OCc1ccccc1)C(=O)NC1C[C@@H]2CC[C@H]1C2)C(=O)O (stereo partly drawn) [Example 43]	46
C[C@H](NC(=O)[C@@H](CCCCNC(=O)OCc1ccccc1)NC(=O)N[C@@H](CCCCN)C(=O)O)c1ccc(Cl)cc1 [Example 44]	144
CCOC(=O)[C@@H](NC(=O)[C@@H](CC1CCCCC1)NC(=O)N[C@@H](CCCCN)C(=O)O)C(C)C [Example 49] ({Lys-CO}-[dCha]-Val-OEt)	106
CC[C@@H](C)[C@H](NC(=O)[C@@H](CC1CCCCC1)NC(=O)N[C@@H](CCCCN)C(=O)O)C(=O)OC [Example 57] ({Lys-CO}-[dCha]-[aIle]-OMe)	544
NCCCC[C@H](NC(=O)N[C@H](CC1CCCCC1)C(=O)N[C@@H]1CC1c1ccccc1)C(=O)O (stereo partly drawn) [Example 64]	757

Structure (SMILES)	IC50 [nM]
CC1CCCC(NC(=O)[C@@H](CC2CCCCC2)NC(=O)N[C@@H](CCCCN)C(=O)O)C1C (stereo partly drawn) [Example 72]	167
NCCCC[C@H](NC(=O)N[C@H](CC1CCCCC1)C(=O)NC1CCc2ccccc2C1)C(=O)O (stereo partly drawn) [Example 73]	47
NCCCC[C@H](NC(=O)N[C@H](CC1CCCCC1)C(=O)NC1C2CC3CC(C2)CC1C3)C(=O)O (stereo partly drawn) [Example 74]	19
CC(C)CNC(=O)[C@@H](CC1CCCCC1)NC(=O)N[C@@H](CCCCN)C(=O)O [Example 76]	845
CC1(C)C2CCC1(C)[C@@H](NC(=O)[C@@H](CC1CCCCC1)NC(=O)N[C@@H](CCCCN)C(=O)O)C2 (stereo partly drawn) [Example 77]	3
NCCCC[C@H](NC(=O)N[C@H](CC1CCCCC1)C(=O)NCC12CC3CC(CC(C3)C1)C2)C(=O)O [Example 78]	305
NCCCC[C@H](NC(=O)N[C@H](CC1CCCCC1)C(=O)NC12CC3CC(CC(C3)C1)C2)C(=O)O [Example 79]	31
CC1(C)[C@@H]2CC[C@@]1(C)[C@@H](NC(=O)[C@@H](CC1CCCCC1)NC(=O)N[C@@H](CCCNC(=N)N)C(=O)O)C2 [Example 91]	4
NCCCC[C@H](NC(=O)N[C@H](CC1CCCCC1)C(=O)NC1CCC2CCCCC2C1)C(=O)O (stereo partly drawn) [Example 92]	160
CC1(C)[C@@H]2CC[C@@]1(C)C(NC(=O)CC(CC1CCCCC1)NC(=O)N[C@@H](CCCN)C(=O)O)C2 (stereo partly drawn) [Example 95]	41000
CC1(C)[C@@H]2CC[C@@]1(C)C(NC(=O)[C@@H](Cc1ccccc1)NC(=O)N[C@@H](CCCCN)C(=O)O)C2 (stereo partly drawn) [Example 96]	15
CC(C)[C@@H](NC(=O)N[C@@H](CCCCN)C(=O)O)C(=O)N[C@H]1C[C@H]2CC[C@]1(C)C2(C)C [Example 97]	462
CC(C)C[C@@H](NC(=O)N[C@@H](CCCCN)C(=O)O)C(=O)NC1C[C@H]2CC[C@]1(C)C2(C)C (stereo partly drawn) [Example 99]	57
CC1(C)C2CC[C@@]1(C)[C@@H](NC(=O)[C@@H](CC1CCCCC1)NC(=O)N[C@@H](CCONC(=N)N)C(=O)O)C2 [Example 107]	1100
CC1(C)[C@@H]2CC[C@@]1(C)[C@@H](NC(=O)[C@@H](CC1CC1)NC(=O)N[C@@H](CCCCN)C(=O)O)C2 [Example 108]	7
CC1(C)[C@@H]2CC[C@@]1(C)[C@@H](NC(=O)[C@@H](CC1CCC1)NC(=O)N[C@@H](CCCCN)C(=O)O)C2 [Example 109]	9
CC(C)[C@H](NC(=O)[C@@H](CCCCNC(=O)OCc1ccccc1)NC(=O)N[C@@H](CCCCN)C(=O)O)C(=O)NCCCc1ccccc1 [Example 113]	747
CCOC(=O)[C@@H](NC(=O)[C@@H](NC(=O)[C@@H](CCCCNC(=O)OCc1ccccc1)NC(=O)N[C@@H](CCCCN)C(=O)O)C(C)C)C(C)C [Example 118] ({Lys-CO}-[dK](Cbz)-Val-Val-OEt)	267
CC(C)[C@H](NC(=O)[C@@H](CCCCNC(=O)OCc1ccccc1)NC(=O)N[C@@H](CCCCN)C(=O)O)C(=O)N[C@@H](C)c1ccc(Cl)cc1 [Example 119]	1300

Further compounds by falling IC50, results first:

IC50 [nM]	Structure (SMILES)
109000	CC1(C)[C@@H]2CC[C@@]1(C)[C@@H](NC(=O)[C@@H](CC1CCCCC1)NC(=O)N[C@H](Cc1ccc(N)nc1)C(=O)O)C2 [Example 94]
1500	CC1(C)[C@@H]2CC[C@@]1(C)[C@@H](NC(=O)[C@@H](CC1CCCCC1)NC(=O)N[C@@H](Cc1ccc(N)nc1)C(=O)O)C2 [Example 93]
1260	Cc1ccccc1CCNC(=O)[C@@H](CC1CCCCC1)NC(=O)N[C@@H](CCCCN)C(=O)O [Example 13]
1140	COC(=O)C1(NC(=O)[C@@H](CCCCNC(=O)OCc2ccccc2)NC(=O)N[C@@H](CCCCN)C(=O)O)CCCC1 [Example 39] ({Lys-CO}-[dK](Cbz)-[Ac5c]-OMe)
1080	CC(CNC(=O)[C@@H](CCCCNC(=O)OCc1ccccc1)NC(=O)N[C@@H](CCCCN)C(=O)O)c1ccccc1 (stereo partly drawn) [Example 34]
1050	CCC(C)CNC(=O)[C@@H](CC1CCCCC1)NC(=O)N[C@@H](CCCCN)C(=O)O (stereo partly drawn) [Example 69]
1040	CC1(C)[C@@H]2CC[C@@]1(C)C(NC(=O)[C@H](NC(=O)N[C@@H](CCCCN)C(=O)O)C1CCCCC1)C2 (stereo partly drawn) [Example 98]
654	C[C@@H]1C(CNC(=O)[C@@H](CC2CCCCC2)NC(=O)N[C@@H](CCCCN)C(=O)O)CC2C[C@@H]1C2(C)C (stereo partly drawn) [Example 84]
653	CC(C)CC(C)NC(=O)[C@@H](CC1CCCCC1)NC(=O)N[C@@H](CCCCN)C(=O)O (stereo partly drawn) [Example 75]
519	CC(C)[C@H](NC(=O)[C@@H](CCCCNC(=O)OCc1ccccc1)NC(=O)N[C@@H](CCCCN)C(=O)O)C(=O)N[C@@H]1C[C@H]2CC[C@@H]1C2 [Example 114]
487	Cc1cccc(CNC(=O)[C@@H](CC2CCCCC2)NC(=O)N[C@@H](CCCCN)C(=O)O)c1C [Example 26]
393	Nc1ccc(CC(NC(=O)N[C@H](CC2CCCCC2)C(=O)NC2CC3CCC2C3)C(=O)O)cn1 (stereo partly drawn) [Example 88]
297	CCOC(=O)[C@@H](NC(=O)[C@@H](CCCCNC(=O)OCc1ccccc1)NC(=O)N[C@@H](CCCCN)C(=O)O)C(C)C [Example 38] ({Lys-CO}-[dK](Cbz)-Val-OEt)
239	CC(C)[C@H](NC(=O)[C@@H](CCCCNC(=O)OCc1ccccc1)NC(=O)N[C@@H](CCCCN)C(=O)O)C(=O)NC1C[C@@H]2CC[C@H]1C2 (stereo partly drawn) [Example 115]
60	CC(C)(C)C1CCC(NC(=O)[C@@H](CC2CCCCC2)NC(=O)N[C@@H](CCCCN)C(=O)O)CC1 (stereo partly drawn) [Example 86]
39	NCCCC[C@H](NC(=O)N[C@H](CC1CCCCC1)C(=O)N[C@H]1CCc2ccccc2C1)C(=O)O [Example 85]
15	CCC[C@@H](NC(=O)N[C@@H](CCCCN)C(=O)O)C(=O)N[C@H]1C[C@H]2CC[C@]1(C)C2(C)C [Example 103]
6	CC1(C)[C@@H]2CC[C@@]1(C)[C@@H](NC(=O)[C@@H](CC1CCCCC1)NC(=O)NC(Cc1ccc(N)nc1)C(=O)O)C2 (stereo partly drawn) [Example 110]
4	CC1(C)[C@@H]2CC[C@@]1(C)[C@@H](NC(=O)C(CC1CCCC1)NC(=O)N[C@@H](CCCCN)C(=O)O)C2 (stereo partly drawn) [Example 111]

Reference: US8389764B2, “Urea and sulfamide derivatives as inhibitors of TAFIa” (Sanofi, priority 2006, dated 2013)
